This is an account of results in PubChem BioAssay AID488890 (Southern Research Specialized Biocontainment Screening …, 2010).

For orientation: IC50 means the concentration at which inhibition is half-maximal.

Structures are written as SMILES. Inconclusive results are not listed. Calls of active or inactive are those of the source. The rule behind the calls is not given here. Bounds are passed on as bounds.

The subject of the assay is Mycobacterium tuberculosis non-replicating, growth inhibition. As to the kind of experiment: growth inhibition of non-replicating M. tuberculosis (AID 488890).
As to `CCCCCCC1CC(C)(C(=O)CNc2nncs2)OC1=O` (stereo not drawn), the IC50 was 20.3 µM (inactive). To `Cc1ccc2c(c1)C(=O)C(=O)N2CCCOc1ccccc1` belongs 22.9 µM (inactive); to `Cc1ccc(/C=N/NC(=O)C2COc3ccccc3O2)s1` (stereo not drawn), 0.7 µM; to `CCOc1ccc(N2CC(=O)Nc3ccccc3NCC2=O)cc1`, 3.98 µM.

For the compound `CC(C)CSc1nnc2c3ccccc3n(C)c2n1`, the IC50 was 26.3 µM (inactive). With `CCOC(=O)c1ccsc1NC(=O)CCS(=O)(=O)c1ccccc1`, the IC50 is 33.8 µM (inactive). For `CCc1ccc2c(c1)Sc1ccccc1CC2N1CCN(C)CC1` (stereo not drawn), the IC50 was 13.6 µM (inactive). For `Cc1ccccc1-n1nnc2c(=O)oc3ccccc3c21` the value was 0.44 µM. As to `O=C(Nc1sc2c(c1C(=O)O)CCCCC2)c1ccccc1F`, the IC50 is 15.6 µM (inactive). To `O=C1C(Nc2ccccc2)=C/C(=N/S(=O)(=O)c2cccs2)c2ccccc21` belongs 12 µM (inactive); to `CCOC(=O)c1cc2cc3ccccc3cc2oc1=O`, 37.6 µM (inactive). For `CCCCN(C)C(=O)c1cc2cc3ccc(OC)cc3nc2s1` the value was 6.04 µM.

For the compound `CN(CCS(=O)(=O)c1ccc(Cl)cc1)Cc1cccnc1`, the IC50 was 13.2 µM (inactive). For `CC(C)Oc1ccc(C(=O)CCN2CCCCC2)cc1` the value was 6.21 µM.

Regarding `CCOC(=O)N/N=C\c1ccc([N+](=O)[O-])s1`, the IC50 was 9.1 µM. For `COc1ccc(C(CCNCc2ccccc2)c2ccc(F)cc2)cc1` (stereo not drawn) the value was 8.67 µM.

Regarding `Cc1ccccc1NC(=O)c1ccc([N+](=O)[O-])o1`, the IC50 was 7.05 µM. To `Clc1ccc(SCCOCCN2CCc3ccccc3C2)cc1` belongs 13.5 µM (inactive).

In the case of `CSc1nnc(Cc2ccc3c(c2)OCO3)o1`, the IC50 was 7.56 µM. As to `O=C(Nc1nnc(C2=COCCO2)o1)c1ccc(F)cc1`, the IC50 is 15.9 µM (inactive). To `O=C(CC1CCCC1)OCn1nnc2ccccc2c1=O` belongs 14 µM (inactive). To `CC1=NN(C(=O)c2ccc(C)o2)C(O)(c2ccccc2)C1` (stereo not drawn) belongs 3.05 µM; to `COc1cccc(/C=C2\SC(=S)N(CCC(=O)N3CCCCC3)C2=O)c1`, 9.08 µM.

In the case of `O=C(CNC(=O)c1ccccc1F)OCc1csc(-c2ccccc2)n1`, the IC50 is 15.2 µM (inactive). With `Cc1ccc(C(=O)CCC2CCCC2=O)cc1` (stereo not drawn), the IC50 is 14.4 µM (inactive). With `O=C(CNC(=O)c1ccc(Br)cc1)c1ccc(Br)cc1`, the IC50 is 18.3 µM (inactive).

In the case of `O=Cc1ccc(OC2OCCOC2Oc2ccc(C=O)cc2)cc1` (stereo not drawn), the IC50 is 14.2 µM (inactive). In the case of `Cc1onc(-c2ccccc2)c1C(=O)N/N=C/c1ccc([N+](=O)[O-])s1`, the IC50 is 8.09 µM. Regarding `COc1ccc(CN=C2NN=C(c3ccc(Cl)cc3)CS2)cc1`, the IC50 is 13.8 µM (inactive).

Regarding `Cc1cccc(C)c1N1C(=O)CC(N2CCSCC2)C1=O` (stereo not drawn), the IC50 is 3.44 µM. In the case of `COc1ccc(C(=O)N/N=C(\C)c2ccccn2)cc1OC`, the IC50 is 4.92 µM. For `Cc1cc(C)c2nc(/N=C(\N)NC(=O)Nc3ccccc3)nc(C)c2c1` the value was 13.3 µM (inactive). For `COc1ccc(N=N/C(=C\O)C(=O)c2ccco2)cc1` the value was 21.5 µM (inactive); for `CC1(C)CC(=O)C(C2NCCc3ccccc32)=C(O)C1` (stereo not drawn), 30.8 µM (inactive). Consider `COC(=O)c1ccc(COC(=O)c2ccccn2)cc1`, for which the IC50 is 7.11 µM. To `CCCCSc1nnc(-c2cc(Br)ccc2N)c(=O)[nH]1` belongs 12.6 µM (inactive); to `CCOC(=O)COc1ccc(C2CC(C)=NN2c2ccccc2)cc1` (stereo not drawn), 2.55 µM; to `CCCCn1nnc(NC(=O)COc2ccc(Cl)c(C)c2)n1`, 7.56 µM. `COc1cc(OC)c2c(OC)cccc2n1`: the concentration for half-maximal inhibition (IC50) was 6.63 µM. For `C=CCc1ccc2oc(C(=O)OCC)cc(=O)c2c1O` the value was 1.26 µM; for `COC(=O)CCS(=O)(=O)c1nc(-c2ccccc2)cc(C(F)(F)F)n1`, 2.25 µM. Turning to `O=[N+]([O-])c1ccc(-n2nnnc2-c2ccccc2)c([N+](=O)[O-])c1`, the concentration for half-maximal inhibition (IC50) is 6.37 µM.

Consider `CC(C)(C)NC(=O)C(=O)NNC(=O)c1ccc(C(C)(C)C)cc1`, for which the IC50 was 5.82 µM.

With `O=C(N/N=C/c1cc(Br)ccc1O)c1ccccc1Cl`, the IC50 is 0.48 µM. Take `CCc1nnc(NC(=O)CN2CCN(Cc3ccc(F)cc3)CC2)s1`: the IC50 was 47 µM (inactive). Consider `O=C(COC(=O)c1ccc([N+](=O)[O-])s1)Nc1ccc(Cl)cn1`, for which the IC50 is 2.37 µM. As for `O=C(NCCC1CCCC1)c1cccs1`, the IC50 was 1.37 µM. For the compound `CCCCNC(=O)Nc1nnc(-c2ccc(Cl)cc2)o1`, the IC50 is 22.8 µM (inactive).

Take `Cc1cc(C(=O)NNc2cc(Cl)ccc2Cl)no1`: the IC50 was 18.7 µM (inactive). For `Cc1ccc(C)c(NC(=O)COC(=O)c2cc3ccccc3oc2=O)c1` the value was 17 µM (inactive); for `CCCCCn1c(=O)c2ccccc2n2c(CCl)nnc12`, 0.72 µM; for `NC(=O)N=Nc1c2[nH]c3ccccc3nc-2c2ccccc12`, 9.06 µM. In the case of `C/C(=N\Nc1ccc(Cl)cc1)c1ccccn1`, the IC50 was 15.9 µM (inactive). Regarding `c1coc(CNc2nc(N3CCCCC3)nc3ccccc23)c1`, the IC50 was 2.9 µM. To `Cc1ccc(Sc2ccc(C=C3C(=O)N(C)C(=O)N(C)C3=O)o2)cc1` belongs 3.04 µM; to `COc1ccc(/C=N/Nc2cc(C)nc(-n3nc(C)cc3C)n2)c(OC)c1`, 3.3 µM; to `COc1ccc(C(=O)OCn2nnc3ccccc3c2=O)cc1`, 28.6 µM (inactive). To `CCOC(=O)COc1ccc(C(=O)NC2CCCCC2)cc1` belongs 4.04 µM; to `Clc1ccc(Cc2nnc(-c3cccs3)o2)cc1`, under 0.1 µM. For `Cc1nnc(NC(=O)c2ccc3ccccc3c2)o1` the value was 1.55 µM; for `O=C(Nc1ccc(Cl)c(Cl)c1)O/N=C/c1ccncc1`, 15.5 µM (inactive). Consider `Cc1ccc(NC(=O)c2noc(C(C)C)c2[N+](=O)[O-])cc1`, for which the IC50 was 19.3 µM (inactive).

In the case of `O=C(NCCC1=CCCCC1)c1ccc(Br)o1`, the IC50 is 2.31 µM. To `CCOC(=O)c1cc(-c2cccc([N+](=O)[O-])c2)on1` belongs 0.64 µM. For `NC(=O)N/N=C/c1ccccc1OC(=O)c1cc2ccccc2oc1=O` the value was 3.77 µM; for `CCOC(=O)COc1ccc2c(c1)C(=O)CC1(CCCCC1)O2`, 0.6 µM; for `Cc1nonc1C(=O)N/N=C/c1ccc([N+](=O)[O-])o1`, 10.1 µM (inactive). To `Cc1ccc(Nc2ccccc2N)cc1` belongs 2.52 µM; to `Cn1c(=O)c(Oc2ccc(Cl)cc2)c(O)c2ccccc21`, 11.1 µM (inactive); to `Cc1cc(C(=O)N/N=C/c2ccc(OC(=O)c3ccccc3Br)cc2)n[nH]1`, 15.6 µM (inactive). For the compound `COc1ccc(C(=O)N/N=C(\c2ccccc2)c2ccccn2)cc1`, the IC50 is 3.27 µM. For `CCOc1ccccc1C(=O)OCC(=O)Nc1nnc(-c2ccccc2)o1` the value was 21.7 µM (inactive); for `CCc1ccc(OCCCC(=O)NCc2ccco2)cc1`, 5.18 µM.

Consider `Cc1ccc(-c2nc3ccccn3c2Nc2ccccc2)o1`, for which the IC50 is 8.4 µM.

Take `Cc1ccc(NC(=O)c2ccc([N+](=O)[O-])o2)cc1S(=O)(=O)N1CCOCC1`: the IC50 is 13.9 µM (inactive). `COc1ccc(Cc2nnc(-c3ccccc3)o2)cc1`: the 50% inhibitory concentration (IC50) was 0.19 µM. For `O=C(COc1ccc2c(c1)CCC2)Nc1ccccn1` the value was 11.6 µM (inactive); for `CCOc1cc(/C=N/NC(=O)c2ccccn2)ccc1OC(=O)c1cccs1`, 5.55 µM; for `COc1ccc(-c2nc3ccc(C)cc3c(=O)o2)cc1OC`, 2.95 µM. In the case of `COC(=O)C(C)Oc1ccc2cc(-c3ccccc3)c(=O)oc2c1` (stereo not drawn), the IC50 was 4.96 µM. Turning to `O=C(N/N=C/c1cccc2cccnc12)c1ccccc1O`, the IC50 was 3.16 µM. To `CSc1ccc(COC(=O)CCS(=O)(=O)c2ccc(C)cc2)cc1` belongs 19.2 µM (inactive); to `Cc1[nH]n2c(=O)c3c(nc2c1-c1ccc(Cl)cc1)CCC3`, 3.4 µM; to `O=C(Nc1ccccc1)c1ccc(Br)o1`, 14 µM (inactive). To `O=C(Oc1ccccc1)c1cccc(COC(=O)c2cnccn2)c1` belongs 28.6 µM (inactive). For `O=C(COC(=O)CC12CC3CC(CC(C3)C1)C2)Nc1cccnc1Cl` the value was 15.2 µM (inactive).

As to `OC(C#CCN1CCOCC1)c1cccs1` (stereo not drawn), the half-maximal inhibitory concentration (IC50) is 7.53 µM.

In the case of `CC(C)CN1C(=O)/C(=C(/C#N)C(=O)NC2CCCCC2)c2ccccc21`, the IC50 is 25.9 µM (inactive).

For the compound `O=C(Cc1ccc(Cl)cc1)OCC(=O)c1ccc[nH]1`, the IC50 is 5.58 µM. To `CCOC(=O)COc1ccc(C(=O)Nc2cccc(Cl)c2C)cc1` belongs 0.23 µM. For `C#CCSc1nnc(-c2cccc3ccccc23)o1`, the half-inhibitory concentration (IC50) was 3.46 µM. As for `CCOC(=O)C1CSC(CC(=O)Nc2ccc(Cl)c(Cl)c2)C(=O)N1` (stereo not drawn), the IC50 is 10.7 µM (inactive).

Regarding `Cc1ccc(CSCCNC(=O)c2cccc([N+](=O)[O-])c2)cc1`, the IC50 is 18.4 µM (inactive).

`O=C(NCCc1ccccc1)c1nc(-c2cccs2)no1`: the IC50 is 2.21 µM.

Turning to `COc1cccc2cc(-c3nc4ccccc4o3)c(=O)oc12`, the IC50 is 7.31 µM. Regarding `COc1ccc(-c2noc(CCC(=O)Nc3cccc(C)c3)n2)cc1`, the IC50 was 11.5 µM (inactive).

As for `CN1CC(=O)NC1=NC(=O)C12CC3CC(CC(C3)C1)C2`, the IC50 was 4.08 µM. In the case of `Cc1ccc(N/N=C2\CS(=O)(=O)N(C)c3ccsc32)cc1`, the half-inhibitory concentration (IC50) is 0.31 µM. For `CC(C)(C)c1ccc(NC(=O)COc2ccc(-n3ccnc3)cc2)cc1` the value was 30.2 µM (inactive); for `COc1ccc(OCCOC(=O)CCS(=O)(=O)c2ccc(C)cc2)cc1`, 24.1 µM (inactive).

For `Cc1cccc2nc(CSc3nc4cc([N+](=O)[O-])ccc4s3)cn12`, the IC50 is 18.1 µM (inactive). As for `CCCCSc1nnc(-c2ccc(C)cc2)o1`, the IC50 is 0.37 µM. To `Brc1ccc(-c2ccc(CNCc3ccccn3)o2)cc1` belongs 1.12 µM.
